Test results as given in US8703752B2 (priority 2003, dated 2014).

Key:
[1] = tested on: Hedgehog protein signaling pathway; test: Inhibition of Shh-induced differentiation of C3H10T1/2 cells (alkaline phosphatase activity, OD 415 nm); type: cell-based, mouse; details: for inhibition of the alkaline phosphatase activity induced by the overexpression of Shh: 10 μM, 5 days, C3H10T1/2 cells transfected with Shh plasmid pRK5
Description: The differentiation of the C3H10T1/2 cells, which is accompanied by induction of alkaline phosphatase activity, is then evaluated by measuring the optical density at 415 nm, in the presence of the alkaline phosphatase substrate, para-nitrophenyl phosphate. The values indicated correspond to the mean±standard error (n=4), and
The inhibition of differentiation of the C3H10T1/2 cells is expressed through the percentage alkaline phosphatase activity, relative to the nontreated cells (maximum activity=100%). The values indicated correspond to the mean±standard error (n=4) of two independent experiments.
The C3H10T1/2 pluripotent fibroblast cell line (ATCC) is cultured under the conditions recommended by the ATCC. C3H10T1/2 cells were transfected with the plasmid pRK5 encoding the mouse Shh protein (Taipale et al., Nature, 2001, 411, 349-354), using calcium phosphate, according to conventional protocols.

[2] = tested on: mammalian embryos; details: cited from earlier work
[3] = biological target: glucocorticoid receptors (Homo sapiens, UniProt P04150); details: cited from earlier work
Sequence of glucocorticoid receptors (P04150 whole entry): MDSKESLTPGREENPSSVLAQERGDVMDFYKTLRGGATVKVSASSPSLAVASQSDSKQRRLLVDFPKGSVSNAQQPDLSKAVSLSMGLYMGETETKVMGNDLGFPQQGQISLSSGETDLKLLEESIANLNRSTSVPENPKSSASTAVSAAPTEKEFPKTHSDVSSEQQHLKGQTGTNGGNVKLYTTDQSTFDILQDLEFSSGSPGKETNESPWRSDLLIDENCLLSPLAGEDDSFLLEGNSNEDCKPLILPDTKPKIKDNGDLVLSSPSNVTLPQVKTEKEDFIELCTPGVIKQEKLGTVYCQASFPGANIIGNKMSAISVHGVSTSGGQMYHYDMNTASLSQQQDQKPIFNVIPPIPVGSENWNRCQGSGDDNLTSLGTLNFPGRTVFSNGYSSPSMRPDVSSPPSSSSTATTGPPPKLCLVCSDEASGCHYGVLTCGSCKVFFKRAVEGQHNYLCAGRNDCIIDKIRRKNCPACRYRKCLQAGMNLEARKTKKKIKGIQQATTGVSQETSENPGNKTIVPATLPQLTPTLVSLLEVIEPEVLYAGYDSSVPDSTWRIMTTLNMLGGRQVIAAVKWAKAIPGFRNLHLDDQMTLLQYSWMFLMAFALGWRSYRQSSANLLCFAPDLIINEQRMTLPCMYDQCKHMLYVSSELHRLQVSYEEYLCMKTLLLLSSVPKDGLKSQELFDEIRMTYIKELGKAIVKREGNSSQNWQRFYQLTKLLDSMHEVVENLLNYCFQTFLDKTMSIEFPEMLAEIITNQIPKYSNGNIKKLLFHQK

SMILES	inhibition of the alkaline phosphatase activity induced by the overexpression of Shh [1]	teratogenic effect [2]	IC50 ([1]; C3H10T1/2 cells transfected with Shh plasmid pRK5, treated 5 days, 1 nM to 10 μM, alkaline phosphatase activity, mean±standard error (n=4), two experiments, read-out: concentration that inhibits 50% of cell differentiation (IC50)) [µM]	affinity for glucocorticoid receptors [3]
CC1=C2C[C@H]3[C@@H](CC=C4C[C@@H](O)CC[C@@]43C)[C@@H]2CC[C@]12O[C@@H]1C[C@H](C)CN[C@H]1[C@H]2C [cyclopamine]	completely inhibited	teratogenic agent that causes holoprosencephaly and cyclopia		
CC#C[C@]1(O)CC[C@H]2[C@@H]3CCC4=CC(=O)CCC4=C3[C@@H](c3ccc(N(C)C)cc3)C[C@@]21C [mifepristone, 17β-hydroxy-11β-(4-dimethylaminophenyl)-17α-(prop-1-ynyl)estra-4,9-dien-3-one]	completely inhibits	devoid of any teratogenic effect	3.7	strong affinity
